# Data published in BindingDB's records for doi:10.1016/j.bmcl.2006.12.014 (The Genomics Institute of The Novartis Research Foundation, 2007).
# Molecular target: Cathepsin Z (Homo sapiens) (UniProt Q9UBR2)
# Test: Inhibition of human recombinant cathepsin X
# Chain of Cathepsin Z (Homo sapiens) (Q9UBR2 whole entry, looked up): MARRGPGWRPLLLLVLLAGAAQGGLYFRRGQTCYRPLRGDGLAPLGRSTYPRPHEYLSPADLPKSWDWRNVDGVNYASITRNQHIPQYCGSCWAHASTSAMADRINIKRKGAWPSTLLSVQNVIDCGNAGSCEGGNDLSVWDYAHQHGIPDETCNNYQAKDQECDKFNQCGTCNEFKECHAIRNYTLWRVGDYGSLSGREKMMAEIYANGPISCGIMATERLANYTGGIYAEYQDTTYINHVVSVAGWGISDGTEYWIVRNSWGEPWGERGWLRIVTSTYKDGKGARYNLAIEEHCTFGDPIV
row,IC50,Compound
1,0.326 µM,"O=C1O[C@@H]2CN1CC[C@@H]2Oc1ccccc1 [(1R,2S)-2-phenoxy-7-oxa-5-aza-bicyclo[3.2.1]octan-6-one]"
2,0.547 µM,"O=C1O[C@@H]2CN1CC[C@@H]2OCc1ccccc1 [(1R,2S)-2-(benzyloxy)-7-oxa-5-aza-bicyclo[3.2.1]octan-6-one]"
3,7.15 µM,"S=C1O[C@@H]2CN1CC[C@@H]2Oc1ccccc1 [(1R,2S)-2-phenoxy-7-oxa-5-aza-bicyclo[3.2.1]octane-6-thione]"

row,Compound,IC50
1,"CC(C)CO[C@H]1CCN2C[C@H]1OC2=O [(1R,2S)-2-isobutoxy-7-oxa-5-aza-bicyclo[3.2.1]octan-6-one]",1.1 µM

# Molecular target: Cathepsin Z (Homo sapiens) (UniProt Q9UBR2)
# Test: Inhibition of human recombinant cathepsin X
# Remark: another data set of the same source
row,IC50,Compound
1,0.197 µM,"Cc1cccc(O[C@H]2CCN3C[C@H]2OC3=O)c1C (relative stereo) [cis-4-(2,3-dimethylphenoxy)-6-oxa-1-aza-bicyclo[3.2.1]octan-7-one]"
2,> 10 µM,"O=C1O[C@H]2CN1CC[C@@H]2Br [(1S,2S)-2-bromo-7-oxa-5-aza-bicyclo[3.2.1]octan-6-one]"
3,0.553 µM,"Cc1cccc(O[C@H]2CCN3C[C@@H]2OC3=O)c1C (racemic) [rac-trans4-(2,3-dimethylphenoxy)-6-oxa-1-aza-bicyclo[3.2.1]octan-7-one]"
